The nature of data set [1]: Rat plasma levels and brain/plasma ratio after administration. Conditions: 15 min after administration of 1 mg/Kg; for concentration at 15 min: plasma. In kind it is in vivo. From the text:
(§1) Moreover, the compounds of the present invention advantageously provide relevant pharmacokinetic improvements.

The nature of data set [2]: Metabolic stability by incubation in human microsomes. In kind it is in vitro ADME. The settings on record: disappearance of compound, 120 min, 1 μM.
Text: as §1

Data set [3] addresses T1, recombinant human MT1 receptor (Homo sapiens, UniProt P48039).
T1 construct: expressed in transfected cells; host or cells: unnamed cell line co-expressing mitochondrial apoaequorin and the Gα16 subunit
Put plainly: Agonist activity on MT1 receptors (aequorin luminescence, Gα16 co-expressing cell line). The format is cell-based. Conditions: percentage activity with respect to the reference agonist at its EC100; for MT1 agonism 1 nM: compound at 1 nM; for MT1 agonism 100 nM: compound at 100 nM, in %. From the text:
Determination of the agonist activity on MT1 receptors
In order to screen compounds for the MT1 receptor a cell line is used that is characterised by stable overexpression of the recombinant human MT1 receptor in a cell line that in turn co-expresses mitochondrial apoaequorin and the Gα16 subunit.
The Gα16 subunit belongs to the G protein family, formed by GPCR, wherein the transduction of intracellular signals occurs via phospholipase (PLC). PLC activation produces an increase in inositol-triphosphate levels that leads to an increase in intracellular calcium. Gα16 overexpression thus allows an increase in intracellular calcium levels that is independent and compatible with the study receptor's own signal transduction pathway.
Following its binding to calcium, the aequorin oxidises coelenterazine to coelenteramide, a reaction that releases CO2 and light.
The trial protocol for the screening of possible agonists consists in collecting the cells and keeping them in suspension overnight in the presence of coelenterazine in order to reconstitute aequorin. On the following day the cells are injected on a plate where the compounds to be screened are diluted, and the luminescence released is read immediately. When wishing to study the possible antagonism of the same compounds, the reference agonist compound is added in the same well after 15-30 min from the first injection and the luminescence released is assessed.
Agonist activity is calculated as percentage activity with respect to the reference agonist at the concentration corresponding to its EC100. Antagonist activity is expressed as percentage inhibition over the reference agonist activity at the concentration corresponding to its EC80.

The conditions of data set [4]: background statement; cited from earlier work.

T1 sequence (P48039 whole entry): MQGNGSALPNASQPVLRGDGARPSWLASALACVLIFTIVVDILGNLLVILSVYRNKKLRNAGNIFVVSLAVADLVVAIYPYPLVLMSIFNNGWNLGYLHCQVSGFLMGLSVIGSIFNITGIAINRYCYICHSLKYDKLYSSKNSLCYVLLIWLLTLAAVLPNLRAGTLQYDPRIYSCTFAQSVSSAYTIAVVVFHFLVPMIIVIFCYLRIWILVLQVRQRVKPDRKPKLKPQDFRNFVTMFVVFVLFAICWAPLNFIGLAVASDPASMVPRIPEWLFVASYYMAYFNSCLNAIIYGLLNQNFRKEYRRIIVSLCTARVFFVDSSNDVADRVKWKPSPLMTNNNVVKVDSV

Turning to `CCC(=O)NCC[C@@H]1CCc2ccc(OC)cc21` [(1S)—N-[2-(6-methoxy-indan-1-yl)ethyl]-propionamide, reference compound], the concentration at 15 min in data set [1] was determined as 10.1 ng/mL. The metabolic stability entry in data set [2] is on record as “less than 30%”.
`CCC(=O)N[C@H]1CCN(c2cccc(OC)c2)C1` [Example 3, (S)—N-[1-(3-methoxy-phenyl)-pyrrolidin-3-yl]-propionamide]: in data set [3], the MT1 agonism 1 nM came to 46.7% and the “MT1 agonism 100 nM” value worked out at 109.9.
The corresponding values for `COc1cccc(N2CC[C@H](NC(C)=O)C2)c1` [Example 4, (S)—N-[1-(3-methoxy-phenyl)-pyrrolidin-3-yl]-acetamide] are 34.4% and 102.7.
Regarding `COc1cccc(N2CC[C@H](NC(=O)CC(C)C)C2)c1` [Example 8, (S)—N-[1-(3-methoxy-phenyl)-pyrrolidin-3-yl]-3-methyl-butyramide], in data set [3], the MT1 agonism 1 nM was determined as 50.1% and the “MT1 agonism 100 nM” value turned out to be 110.3. The Kp at 0.25 h in data set [1] (brain/plasma) came to 1. Also, in data set [1], the concentration at 15 min came to 15.1 ng/mL.
Consider `COc1ccc2[nH]cc(CCNC(C)=O)c2c1` [Melatonin, reference compound], for which, in data set [3], the MT1 agonism 1 nM amounted to 51.8% and the “MT1 agonism 100 nM” value was 100.5.
In the case of `CCC(=O)NCC[C@@H]1CCc2ccc3c(c21)CCO3` [Ramelteon, N-[2-[(8S)-1,6,7,8-tetrahydro-2H-indeno[5,4-b]furan-8-yl)ethyl]propionamide, reference compound], in data set [3], the MT1 agonism 1 nM is 50% and the “MT1 agonism 100 nM” value was 117.5. In addition, in data set [4], the clearance is listed as 88%.
Take “(S)-[1-(3-methoxy-phenyl)-pyrrolidin-3-yl]-butyramide [Example 7]”: in data set [3], the MT1 agonism 1 nM came out at 33.4% and the “MT1 agonism 100 nM” value came out at 99.6.

The record behind these values is US20120184594A1, “PHENYLPYRROLIDINE COMPOUNDS” (Ferrer Internacional S.A., priority 2007, published 2012).
